Experimental data published in US20210045385A1, “PYRIDAZINONE-SUBSTITUTED KETOXIMES AS HERBICIDES” (FMC Corporation, priority 2018, published 2021).

Experiments:
Assay type in all cases: in vivo
kochia (Bassia scoparia) [1] = experiment: Test C preemergence, visual plant response rating
Outline: (§1)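 Visual injury on a 0 (no effect) to 100 (complete control) scale versus untreated controls, scored approximately 10 d after treatment under greenhouse conditions. Treatments used surfactant-containing non-phytotoxic solvent formulations, sprayed onto loam–sand soil preemergence or onto one- to two-leaf plants 2–10 cm tall postemergence.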

[2] = system: pigweed (Amaranthus retroflexus); experiment: Test C preemergence, visual plant response rating
Outline: as §1

[3] = system: foxtail, giant (giant foxtail, Setaria faberi); experiment: Test C preemergence, visual plant response rating
Outline: as §1

[4] = system: barnyardgrass (Echinochloa crus-galli); experiment: Test C preemergence, visual plant response rating
Outline: as §1

[5] = system: ragweed (common ragweed, Ambrosia artemisiifolia); experiment: Test C preemergence, visual plant response rating
Outline: as §1

[6] = system: Italian ryegrass (Lolium mutiflorum); experiment: Test C preemergence, visual plant response rating
Outline: as §1

rice (Oryza sativa) = experiment: Test D flooded paddy test, visual plant response rating; details: 250 g ai/ha, scale 0 to 100 (0 no effect, 100 complete control), 13 to 15 d
Outline: (§2)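 Visual injury scores, 0 (no effect) to 100 (complete control), were assigned after 13 to 15 d in the greenhouse by comparison with controls. Test compounds had been added to paddy water covering soil by 3 cm at the 2-leaf stage.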

[7] = system: barnyardgrass (Echinochloa crus-galli); experiment: as above; details: 250 g ai/ha, scale 0 to 100 (0 no effect, 100 complete control), 13 to 15 d
Outline: as §2

[8] = system: duck salad (Heteranthera limosa); experiment: as above; details: 250 g ai/ha, scale 0 to 100 (0 no effect, 100 complete control), 13 to 15 d
Outline: as §2

[9] = system: sedge umbrella (small-flower umbrella sedge, Cyperus difformis); experiment: as above; details: 250 g ai/ha, scale 0 to 100 (0 no effect, 100 complete control), 13 to 15 d
Outline: as §2

kochia (Bassia scoparia) [10] = experiment: Test C postemergence, visual plant response rating
Outline: as §1

corn (Zea mays) = experiment: Test C postemergence, visual plant response rating
Outline: as §1

[11] = system: pigweed (Amaranthus retroflexus); experiment: Test C postemergence, visual plant response rating
Outline: as §1

[12] = system: foxtail, giant (giant foxtail, Setaria faberi); experiment: Test C postemergence, visual plant response rating
Outline: as §1

[13] = system: barnyardgrass (Echinochloa crus-galli); experiment: Test C postemergence, visual plant response rating
Outline: as §1

[14] = system: ragweed (common ragweed, Ambrosia artemisiifolia); experiment: Test C postemergence, visual plant response rating
Outline: as §1

[15] = system: blackgrass (Alopecurus myosuroides); experiment: Test C postemergence, visual plant response rating
Outline: as §1

[16] = system: wheat (Triticum aestivum); experiment: Test C postemergence, visual plant response rating
Outline: as §1

[17] = system: Italian ryegrass (Lolium mutiflorum); experiment: Test C postemergence, visual plant response rating
Outline: as §1

[18] = system: galium (catchweed bedstraw, Galium aparine); experiment: Test C postemergence, visual plant response rating
Outline: as §1

[19] = Test C, 31 g ai/ha, 0 is no effect, 100 is complete control
[20] = Test C, postemergence, 125 g ai/ha
[21] = Test C, 125 g ai/ha, 0 is no effect, 100 is complete control

SMILES: Cc1nn(C)c(=O)c(/C(=N/OC(C)C)c2cc(Cl)cc(Cl)c2F)c1O [Compound 179]
- Kochia plant response rating (0 to 100 scale) (kochia (Bassia scoparia) [1]; 125 g ai/ha): 90
- Kochia plant response rating (0 to 100 scale) (kochia (Bassia scoparia) [1]; [19]): 90
- Pigweed plant response rating (0 to 100 scale) ([2]; 125 g ai/ha): 100
- Pigweed plant response rating (0 to 100 scale) [2, 19]: 100
- Foxtail, Giant plant response rating (0 to 100 scale) ([3]; 125 g ai/ha): 100
- Foxtail, Giant plant response rating (0 to 100 scale) [3, 19]: 100
- Barnyardgrass plant response rating (0 to 100 scale) ([4]; 125 g ai/ha): 100
- Barnyardgrass plant response rating (0 to 100 scale) [4, 19]: 90
- Ragweed plant response rating (0 to 100 scale) ([5]; 125 g ai/ha): 100
- Ragweed plant response rating (0 to 100 scale) [5, 19]: 90
- Ryegrass, Italian plant response rating (0 to 100 scale) ([6]; 125 g ai/ha): 100
- Ryegrass, Italian plant response rating (0 to 100 scale) [6, 19]: 100
- Plant response rating, Rice (Flood) (rice (Oryza sativa)): 70
- Plant response rating, Barnyardgrass (Flood) [7]: 95
- Plant response rating, Ducksalad (Flood) [8]: 80
- Plant response rating, Sedge, Umbrella (Flood) [9]: 95
- Kochia plant response rating (0 to 100 scale) (kochia (Bassia scoparia) [10]; Postemergence, 31 g ai/ha): 80
- Kochia plant response rating (0 to 100 scale) (kochia (Bassia scoparia) [10]; [20]): 100
- Corn plant response rating (0 to 100 scale) (corn (Zea mays); Postemergence, 31 g ai/ha): 30
- Corn plant response rating (0 to 100 scale) (corn (Zea mays); [20]): 80
- Pigweed plant response rating (0 to 100 scale) ([11]; Postemergence, 31 g ai/ha): 100
- Pigweed plant response rating (0 to 100 scale) [11, 20]: 100
- Foxtail, Giant plant response rating (0 to 100 scale) ([12]; Postemergence, 31 g ai/ha): 90
- Foxtail, Giant plant response rating (0 to 100 scale) [12, 20]: 100
- Barnyardgrass plant response rating (0 to 100 scale) ([13]; Postemergence, 31 g ai/ha): 90
- Barnyardgrass plant response rating (0 to 100 scale) [13, 20]: 80
- Ragweed plant response rating (0 to 100 scale) ([14]; Postemergence, 31 g ai/ha): 100
- Ragweed plant response rating (0 to 100 scale) [14, 20]: 100
- Blackgrass plant response rating (0 to 100 scale) ([15]; Postemergence, 31 g ai/ha): 80
- Blackgrass plant response rating (0 to 100 scale) [15, 20]: 90
- Wheat plant response rating (0 to 100 scale) ([16]; Postemergence, 31 g ai/ha): 80
- Wheat plant response rating (0 to 100 scale) [16, 20]: 100
- Ryegrass, Italian plant response rating (0 to 100 scale) ([17]; Postemergence, 31 g ai/ha): 90
- Ryegrass, Italian plant response rating (0 to 100 scale) [17, 20]: 100
- Galium plant response rating (0 to 100 scale) ([18]; Postemergence, 31 g ai/ha): 100
- Galium plant response rating (0 to 100 scale) [18, 20]: 100

SMILES: Cc1nn(C)c(=O)c(C(=NOC(C)C)c2cc(Cl)cc(Cl)c2F)c1O [Compound 167]
- Kochia plant response rating (0 to 100 scale) (kochia (Bassia scoparia) [1]; 125 g ai/ha): 100
- Kochia plant response rating (0 to 100 scale) (kochia (Bassia scoparia) [1]; [19]): 70
- Pigweed plant response rating (0 to 100 scale) ([2]; 125 g ai/ha): 100
- Pigweed plant response rating (0 to 100 scale) [2, 19]: 100
- Foxtail, Giant plant response rating (0 to 100 scale) ([3]; 125 g ai/ha): 100
- Foxtail, Giant plant response rating (0 to 100 scale) [3, 19]: 100
- Barnyardgrass plant response rating (0 to 100 scale) ([4]; 125 g ai/ha): 100
- Barnyardgrass plant response rating (0 to 100 scale) [4, 19]: 100
- Ragweed plant response rating (0 to 100 scale) ([5]; 125 g ai/ha): 100
- Ragweed plant response rating (0 to 100 scale) [5, 19]: 80
- Ryegrass, Italian plant response rating (0 to 100 scale) ([6]; 125 g ai/ha): 100
- Ryegrass, Italian plant response rating (0 to 100 scale) [6, 19]: 100
- Plant response rating, Rice (Flood) (rice (Oryza sativa)): 65
- Plant response rating, Barnyardgrass (Flood) [7]: 95
- Plant response rating, Ducksalad (Flood) [8]: 70
- Plant response rating, Sedge, Umbrella (Flood) [9]: 95
- Kochia plant response rating (0 to 100 scale) (kochia (Bassia scoparia) [10]; Postemergence, 31 g ai/ha): 80
- Kochia plant response rating (0 to 100 scale) (kochia (Bassia scoparia) [10]; [20]): 100
- Corn plant response rating (0 to 100 scale) (corn (Zea mays); Postemergence, 31 g ai/ha): 30
- Corn plant response rating (0 to 100 scale) (corn (Zea mays); [20]): 70
- Pigweed plant response rating (0 to 100 scale) ([11]; Postemergence, 31 g ai/ha): 100
- Pigweed plant response rating (0 to 100 scale) [11, 20]: 100
- Foxtail, Giant plant response rating (0 to 100 scale) ([12]; Postemergence, 31 g ai/ha): 90
- Foxtail, Giant plant response rating (0 to 100 scale) [12, 20]: 90
- Barnyardgrass plant response rating (0 to 100 scale) ([13]; Postemergence, 31 g ai/ha): 80
- Barnyardgrass plant response rating (0 to 100 scale) [13, 20]: 90
- Ragweed plant response rating (0 to 100 scale) ([14]; Postemergence, 31 g ai/ha): 100
- Ragweed plant response rating (0 to 100 scale) [14, 20]: 100
- Blackgrass plant response rating (0 to 100 scale) ([15]; Postemergence, 31 g ai/ha): 80
- Blackgrass plant response rating (0 to 100 scale) [15, 20]: 90
- Wheat plant response rating (0 to 100 scale) ([16]; Postemergence, 31 g ai/ha): 70
- Wheat plant response rating (0 to 100 scale) [16, 20]: 100
- Ryegrass, Italian plant response rating (0 to 100 scale) ([17]; Postemergence, 31 g ai/ha): 100
- Ryegrass, Italian plant response rating (0 to 100 scale) [17, 20]: 100
- Galium plant response rating (0 to 100 scale) ([18]; Postemergence, 31 g ai/ha): 80
- Galium plant response rating (0 to 100 scale) [18, 20]: 100

SMILES: C#CCON=C(c1cccc(OC(F)F)c1)c1c(O)c(C)nn(C)c1=O [Compound 201]
- Kochia plant response rating (0 to 100 scale) (kochia (Bassia scoparia) [1]; [19]): 0
- Kochia plant response rating (0 to 100 scale) (kochia (Bassia scoparia) [1]; [21]): 0
- Pigweed plant response rating (0 to 100 scale) [2, 19]: 0
- Pigweed plant response rating (0 to 100 scale) [2, 21]: 0
- Foxtail, Giant plant response rating (0 to 100 scale) [3, 19]: 10
- Foxtail, Giant plant response rating (0 to 100 scale) [3, 21]: 30
- Barnyardgrass plant response rating (0 to 100 scale) [4, 19]: 0
- Barnyardgrass plant response rating (0 to 100 scale) [4, 21]: 10
- Ragweed plant response rating (0 to 100 scale) [5, 19]: 0
- Ragweed plant response rating (0 to 100 scale) [5, 21]: 20
- Ryegrass, Italian plant response rating (0 to 100 scale) [6, 19]: 10
- Ryegrass, Italian plant response rating (0 to 100 scale) [6, 21]: 80
- Plant response rating, Rice (Flood) (rice (Oryza sativa)): 0
- Plant response rating, Barnyardgrass (Flood) [7]: 0
- Plant response rating, Ducksalad (Flood) [8]: 0
- Plant response rating, Sedge, Umbrella (Flood) [9]: 0
- Kochia plant response rating (0 to 100 scale) (kochia (Bassia scoparia) [10]; Postemergence, 31 g ai/ha): 40
- Kochia plant response rating (0 to 100 scale) (kochia (Bassia scoparia) [10]; [20]): 70
- Corn plant response rating (0 to 100 scale) (corn (Zea mays); Postemergence, 31 g ai/ha): 0
- Corn plant response rating (0 to 100 scale) (corn (Zea mays); [20]): 0
- Pigweed plant response rating (0 to 100 scale) ([11]; Postemergence, 31 g ai/ha): 20
- Pigweed plant response rating (0 to 100 scale) [11, 20]: 70
- Foxtail, Giant plant response rating (0 to 100 scale) ([12]; Postemergence, 31 g ai/ha): 20
- Foxtail, Giant plant response rating (0 to 100 scale) [12, 20]: 40
- Barnyardgrass plant response rating (0 to 100 scale) ([13]; Postemergence, 31 g ai/ha): 10
- Barnyardgrass plant response rating (0 to 100 scale) [13, 20]: 40
- Ragweed plant response rating (0 to 100 scale) ([14]; Postemergence, 31 g ai/ha): 10
- Ragweed plant response rating (0 to 100 scale) [14, 20]: 30
- Blackgrass plant response rating (0 to 100 scale) ([15]; Postemergence, 31 g ai/ha): 10
- Blackgrass plant response rating (0 to 100 scale) [15, 20]: 50
- Wheat plant response rating (0 to 100 scale) ([16]; Postemergence, 31 g ai/ha): 0
- Wheat plant response rating (0 to 100 scale) [16, 20]: 40
- Ryegrass, Italian plant response rating (0 to 100 scale) ([17]; Postemergence, 31 g ai/ha): 30
- Ryegrass, Italian plant response rating (0 to 100 scale) [17, 20]: 60
- Galium plant response rating (0 to 100 scale) ([18]; Postemergence, 31 g ai/ha): 50
- Galium plant response rating (0 to 100 scale) [18, 20]: 80
